# Tests used:
# [1] = Stability of cannabinoid compounds and Vitamin E components in Beverage 1 (AB White) by LCMSMS; assay type: physicochemical; settings: AB White stored at 21-25° C.
# [2] = Stability of cannabinoid entourage and Vitamin E components of the powder concentrate by LCMSMS; assay type: physicochemical; settings: powder stored at 21-25° C.
# Method: At each time period, 0.05 g of powder was dissolved in 10 ml-15 of ethanol, diluted to fall within the analytical range, and injected into the LCMSMS for analysis.
smiles,measurement,setting,value
"CCCCCc1cc(O)c2c(c1)OC1(C)CCC3C1C2C3(C)C (stereo not drawn) [CBL, cannabicyclol]","Stability of Plant-Derived Cannabinoid Compounds in AB White, 21-25° C.",[1]; 29 days,0.552 µg/mL
same,"Stability of Plant-Derived Cannabinoid Compounds in AB White, 21-25° C.",[1]; 30 days,0.543 µg/mL
same,"Stability of Plant-Derived Cannabinoid Compounds in AB White, 21-25° C.",[1]; 60 days,0.544 µg/mL
same,"Stability of Plant-Derived Cannabinoid Compounds in AB White, 21-25° C.",[1]; 90 days,0.541 µg/mL
same,"Stability of Plant-Derived Cannabinoid Compounds in AB White, 21-25° C.",[1]; 120 days,0.516 µg/mL
same,"Stability of Plant-Derived Cannabinoid Compounds in AB White, 21-25° C.",[1]; 150 days,0.517 µg/mL
same,"Stability of Plant-Derived Cannabinoid Compounds in AB White, 21-25° C.",[1]; 180 days,0.527 µg/mL
same,"Stability of Plant-Derived Cannabinoid Compounds in AB White, 21-25° C.",[1]; 210 days,0.514 µg/mL
same,"Stability of Plant-Derived Cannabinoid Compounds in AB White, 21-25° C.",[1]; 240 days,0.515 µg/mL
same,"Stability of Plant-Derived Cannabinoid Compounds in AB White, 21-25° C.",[1]; 270 days,0.535 µg/mL
same,"Stability of Plant-Derived Cannabinoid Compounds in AB White, 21-25° C.",[1]; 300 days,0.532 µg/mL
same,"Stability of Plant-Derived Cannabinoid Compounds in AB White, 21-25° C.",[1]; 330 days,0.526 µg/mL
same,"Stability of Plant-Derived Cannabinoid Compounds in AB White, 21-25° C.",[1]; 360 days,0.526 µg/mL
same,"Stability of Plant-Derived Cannabinoid Compounds in AB White, 21-25° C.",[1]; 390 days,0.518 µg/mL
same,"Stability of Plant-Derived Cannabinoid Compounds in AB White, 21-25° C.",[1]; 420 days,0.523 µg/mL
same,"Stability of Plant-Derived Cannabinoid Compounds in AB White, 21-25° C.",[1]; 450 days,0.521 µg/mL
same,"Stability of Plant-Derived Cannabinoid Compounds in AB White, 21-25° C.",[1]; 480 days,0.510 µg/mL
same,"Stability of Plant-Derived Cannabinoid Compounds in AB White, 21-25° C.",[1]; 510 days,0.503 µg/mL
same,"Stability of Plant-Derived Cannabinoid Compounds in AB White, 21-25° C.",[1]; 540 days,0.510 µg/mL
same,"Stability of Plant-Derived Cannabinoid Compounds in AB White, 21-25° C.",[1]; 570 days,0.505 µg/mL
same,Stability of Plant-Derived Cannabinoid Compounds in Powder Concentrate,[2]; 0 days,0.050 mg/g powder
same,Stability of Plant-Derived Cannabinoid Compounds in Powder Concentrate,[2]; 1 days,0.051 mg/g powder
same,Stability of Plant-Derived Cannabinoid Compounds in Powder Concentrate,[2]; 2 days,0.049 mg/g powder
same,Stability of Plant-Derived Cannabinoid Compounds in Powder Concentrate,[2]; 3 days,0.050 mg/g powder
same,Stability of Plant-Derived Cannabinoid Compounds in Powder Concentrate,[2]; 5 days,0.052 mg/g powder
same,Stability of Plant-Derived Cannabinoid Compounds in Powder Concentrate,[2]; 8 days,0.050 mg/g powder
same,Stability of Plant-Derived Cannabinoid Compounds in Powder Concentrate,[2]; 9 days,0.050 mg/g powder
same,Stability of Plant-Derived Cannabinoid Compounds in Powder Concentrate,[2]; 10 days,0.050 mg/g powder
same,Stability of Plant-Derived Cannabinoid Compounds in Powder Concentrate,[2]; 11 days,0.052 mg/g powder
same,Stability of Plant-Derived Cannabinoid Compounds in Powder Concentrate,[2]; 12 days,0.052 mg/g powder
same,Stability of Plant-Derived Cannabinoid Compounds in Powder Concentrate,[2]; 15 days,0.048 mg/g powder
same,Stability of Plant-Derived Cannabinoid Compounds in Powder Concentrate,[2]; 16 days,0.049 mg/g powder
same,Stability of Plant-Derived Cannabinoid Compounds in Powder Concentrate,[2]; 17 days,0.049 mg/g powder
same,Stability of Plant-Derived Cannabinoid Compounds in Powder Concentrate,[2]; 18 days,0.052 mg/g powder
same,Stability of Plant-Derived Cannabinoid Compounds in Powder Concentrate,[2]; 19 days,0.052 mg/g powder
same,Stability of Plant-Derived Cannabinoid Compounds in Powder Concentrate,[2]; 22 days,0.051 mg/g powder
same,Stability of Plant-Derived Cannabinoid Compounds in Powder Concentrate,[2]; 23 days,0.051 mg/g powder
same,Stability of Plant-Derived Cannabinoid Compounds in Powder Concentrate,[2]; 24 days,0.050 mg/g powder
same,Stability of Plant-Derived Cannabinoid Compounds in Powder Concentrate,[2]; 25 days,0.050 mg/g powder
same,Stability of Plant-Derived Cannabinoid Compounds in Powder Concentrate,[2]; 26 days,0.051 mg/g powder
same,Stability of Plant-Derived Cannabinoid Compounds in Powder Concentrate,[2]; 29 days,0.048 mg/g powder
same,Stability of Plant-Derived Cannabinoid Compounds in Powder Concentrate,[2]; 30 days,0.051 mg/g powder
same,Stability of Plant-Derived Cannabinoid Compounds in Powder Concentrate,[2]; 60 days,0.050 mg/g powder
same,Stability of Plant-Derived Cannabinoid Compounds in Powder Concentrate,[2]; 90 days,0.050 mg/g powder
same,Stability of Plant-Derived Cannabinoid Compounds in Powder Concentrate,[2]; 120 days,0.048 mg/g powder
same,Stability of Plant-Derived Cannabinoid Compounds in Powder Concentrate,[2]; 150 days,0.050 mg/g powder
same,Stability of Plant-Derived Cannabinoid Compounds in Powder Concentrate,[2]; 180 days,0.049 mg/g powder
same,Stability of Plant-Derived Cannabinoid Compounds in Powder Concentrate,[2]; 210 days,0.052 mg/g powder
same,Stability of Plant-Derived Cannabinoid Compounds in Powder Concentrate,[2]; 240 days,0.049 mg/g powder
same,Stability of Plant-Derived Cannabinoid Compounds in Powder Concentrate,[2]; 270 days,0.051 mg/g powder
same,Stability of Plant-Derived Cannabinoid Compounds in Powder Concentrate,[2]; 300 days,0.050 mg/g powder
same,Stability of Plant-Derived Cannabinoid Compounds in Powder Concentrate,[2]; 330 days,0.049 mg/g powder
same,Stability of Plant-Derived Cannabinoid Compounds in Powder Concentrate,[2]; 360 days,0.050 mg/g powder
same,Stability of Plant-Derived Cannabinoid Compounds in Powder Concentrate,[2]; 390 days,0.052 mg/g powder
same,Stability of Plant-Derived Cannabinoid Compounds in Powder Concentrate,[2]; 420 days,0.050 mg/g powder
same,Stability of Plant-Derived Cannabinoid Compounds in Powder Concentrate,[2]; 450 days,0.052 mg/g powder
same,Stability of Plant-Derived Cannabinoid Compounds in Powder Concentrate,[2]; 480 days,0.051 mg/g powder
same,Stability of Plant-Derived Cannabinoid Compounds in Powder Concentrate,[2]; 510 days,0.050 mg/g powder
same,Stability of Plant-Derived Cannabinoid Compounds in Powder Concentrate,[2]; 540 days,0.048 mg/g powder
same,Stability of Plant-Derived Cannabinoid Compounds in Powder Concentrate,[2]; 570 days,0.050 mg/g powder

# Source: patent US20260130395A1, “Water Dispersible Botanical Compositions” (Aquila Black Limited, priority 2021, published 2026)
